Target: T1, BRM (Homo sapiens, UniProt P51531)
T1 construct: In-Cell Western Screen of BRM Degradation in SW1573 Cells; endogenous in cells; host or cells: SW1573
Test: In-cell Western screen of BRM degradation in SW1573 cells (Dmax and DC50)
Assay type: cell-based
Conditions: BRM degradation, SW1573 cells; for DC50: read-out: DC50; for Dmax: when tested at the top concentration of between 0.3 and 10 μM, read-out: Dmax (%) (% degraded)
Procedure, shortened: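 Overnight compound treatment (18-20 h, final DMSO 0.1%) of SW1573 cells in DMEM with 10% FBS precedes fixation and in-cell Western staining with 800/680 nm dye-labelled secondaries. Plate images give DC50 and maximal degradation.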

T1 sequence (P51531 whole entry): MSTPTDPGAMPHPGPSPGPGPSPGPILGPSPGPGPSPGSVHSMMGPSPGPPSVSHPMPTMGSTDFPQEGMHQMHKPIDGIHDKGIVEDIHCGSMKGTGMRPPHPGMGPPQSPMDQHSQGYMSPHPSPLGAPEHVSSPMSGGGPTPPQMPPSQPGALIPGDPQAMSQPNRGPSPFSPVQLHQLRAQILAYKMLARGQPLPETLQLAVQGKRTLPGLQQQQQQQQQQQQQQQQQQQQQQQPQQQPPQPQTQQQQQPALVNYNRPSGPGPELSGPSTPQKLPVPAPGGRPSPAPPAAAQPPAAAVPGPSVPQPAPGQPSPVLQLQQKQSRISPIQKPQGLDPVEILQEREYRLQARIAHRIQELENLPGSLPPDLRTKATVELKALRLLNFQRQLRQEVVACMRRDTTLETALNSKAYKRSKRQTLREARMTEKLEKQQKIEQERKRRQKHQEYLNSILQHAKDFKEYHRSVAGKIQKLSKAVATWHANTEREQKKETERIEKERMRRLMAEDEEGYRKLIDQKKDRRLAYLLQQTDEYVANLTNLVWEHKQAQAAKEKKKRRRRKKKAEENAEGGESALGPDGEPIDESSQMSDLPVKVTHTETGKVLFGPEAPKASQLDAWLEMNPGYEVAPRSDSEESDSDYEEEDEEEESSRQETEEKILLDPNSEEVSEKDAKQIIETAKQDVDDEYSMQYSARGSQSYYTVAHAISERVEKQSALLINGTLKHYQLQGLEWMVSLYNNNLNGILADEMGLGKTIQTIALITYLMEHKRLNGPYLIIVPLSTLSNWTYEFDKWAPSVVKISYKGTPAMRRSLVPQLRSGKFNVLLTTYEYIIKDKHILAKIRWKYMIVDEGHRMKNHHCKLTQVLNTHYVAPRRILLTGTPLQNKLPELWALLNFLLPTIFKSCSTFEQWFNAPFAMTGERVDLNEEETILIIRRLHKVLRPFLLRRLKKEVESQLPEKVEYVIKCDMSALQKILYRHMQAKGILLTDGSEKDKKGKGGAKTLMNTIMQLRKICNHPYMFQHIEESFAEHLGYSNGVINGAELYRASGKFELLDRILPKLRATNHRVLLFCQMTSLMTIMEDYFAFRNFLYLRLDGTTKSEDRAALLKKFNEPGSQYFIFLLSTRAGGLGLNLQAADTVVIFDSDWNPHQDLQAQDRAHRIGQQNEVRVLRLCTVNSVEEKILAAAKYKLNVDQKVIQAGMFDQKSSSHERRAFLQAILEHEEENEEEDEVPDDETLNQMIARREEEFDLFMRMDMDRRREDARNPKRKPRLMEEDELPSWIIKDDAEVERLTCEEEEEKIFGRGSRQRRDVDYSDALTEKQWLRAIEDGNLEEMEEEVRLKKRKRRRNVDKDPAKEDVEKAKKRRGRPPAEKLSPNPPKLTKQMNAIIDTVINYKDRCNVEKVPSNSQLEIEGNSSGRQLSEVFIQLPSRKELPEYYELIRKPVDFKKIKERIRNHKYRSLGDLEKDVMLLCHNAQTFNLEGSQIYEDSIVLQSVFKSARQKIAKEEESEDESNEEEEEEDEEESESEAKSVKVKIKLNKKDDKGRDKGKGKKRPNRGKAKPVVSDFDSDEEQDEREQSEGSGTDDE

| Compound | DC50 | Dmax |
| --- | --- | --- |
| Cc1ncsc1-c1ccc([C@H](C)NC(=O)[C@@H]2C[C@@H](O)CN2C(=O)[C@H](c2cc(OCC#Cc3ccc(O[C@H]4C[C@H](Oc5cc(N6C7CCC6CN(c6cc(-c8ccccc8O)nnc6N)C7)ccn5)C4)cn3)no2)C(C)C)cc1 [compound 69, (2S,4R)-1-((2S)-2-(3-((3-(5-((1r,3S)-3-((4-(3-(3-amino-6-(2-hydroxyphenyl)pyridazin-4-yl)-3,8-diazabicyclo[3.2.1]octan-8-yl)pyridin-2-yl)oxy)cyclobutoxy)pyridin-2-yl)prop-2-yn-1-yl)oxy)isoxazol-5-yl)-3-methylbutanoyl)-4-hydroxy-N-((S)-1-(4-(4-methylthiazol-5-yl)phenyl)ethyl)pyrrolidine-2-carboxamide] | 10 to 30 nM | > 75% |
| Cc1ncsc1-c1ccc([C@H](C)NC(=O)[C@@H]2C[C@@H](O)CN2C(=O)[C@@H](c2cc(OCC#Cc3ccc(O[C@H]4C[C@H](Oc5cc(N6C7CCC6CN(c6cc(-c8ccccc8O)nnc6N)C7)ccn5)C4)cn3)no2)C(C)C)cc1 [compound 70, (2S,4R)-1-((2R)-2-(3-((3-(5-((1r,3R)-3-((4-(3-(3-amino-6-(2-hydroxyphenyl)pyridazin-4-yl)-3,8-diazabicyclo[3.2.1]octan-8-yl)pyridin-2-yl)oxy)cyclobutoxy)pyridin-2-yl)prop-2-yn-1-yl)oxy)isoxazol-5-yl)-3-methylbutanoyl)-4-hydroxy-N-((S)-1-(4-(4-methylthiazol-5-yl)phenyl)ethyl)pyrrolidine-2-carboxamide] | < 2.5 nM | > 75% |
| Cc1ncsc1-c1ccc([C@H](C)NC(=O)[C@@H]2C[C@@H](O)CN2C(=O)[C@H](c2cc(OCCOCCOCCCCN3CC4(CCN(c5cc(-c6ccccc6O)nnc5N)CC4)C3)no2)C(C)C)cc1 [compound 71, (2S,4R)-1-((S)-2-(3-(2-(2-(4-(7-(3-amino-6-(2-hydroxyphenyl)pyridazin-4-yl)-2,7-diazaspiro[3.5]nonan-2-yl)butoxy)ethoxy)ethoxy)isoxazol-5-yl)-3-methylbutanoyl)-4-hydroxy-N-((S)-1-(4-(4-methylthiazol-5-yl)phenyl)ethyl)pyrrolidine-2-carboxamide] | > 30 nM | – |
| Cc1ncsc1-c1ccc([C@H](C)NC(=O)[C@@H]2C[C@@H](O)CN2C(=O)[C@@H](c2cc(OCCOCCOCCCCN3CC4(CCN(c5cc(-c6ccccc6O)nnc5N)CC4)C3)no2)C(C)C)cc1 [compound 72, (2S,4R)-1-((R)-2-(3-(2-(2-(4-(7-(3-amino-6-(2-hydroxyphenyl)pyridazin-4-yl)-2,7-diazaspiro[3.5]nonan-2-yl)butoxy)ethoxy)ethoxy)isoxazol-5-yl)-3-methylbutanoyl)-4-hydroxy-N-((S)-1-(4-(4-methylthiazol-5-yl)phenyl)ethyl)pyrrolidine-2-carboxamide] | 10 to 30 nM | > 75% |
| Cc1ncsc1-c1ccc([C@H](C)NC(=O)[C@@H]2C[C@@H](O)CN2C(=O)[C@H](c2cc(OCCOCCOCCCCN3CCC4(CCN(c5cc(-c6ccccc6O)nnc5N)CC4)C3)no2)C(C)C)cc1 [compound 73, (2S,4R)-1-((S)-2-(3-(2-(2-(4-(8-(3-amino-6-(2-hydroxyphenyl)pyridazin-4-yl)-2,8-diazaspiro[4.5]decan-2-yl)butoxy)ethoxy)ethoxy)isoxazol-5-yl)-3-methylbutanoyl)-4-hydroxy-N-((S)-1-(4-(4-methylthiazol-5-yl)phenyl)ethyl)pyrrolidine-2-carboxamide] | > 30 nM | – |
| Cc1ncsc1-c1ccc([C@H](C)NC(=O)[C@@H]2C[C@@H](O)CN2C(=O)[C@@H](c2cc(OCCOCCOCCCCN3CCC4(CCN(c5cc(-c6ccccc6O)nnc5N)CC4)C3)no2)C(C)C)cc1 [compound 74, (2S,4R)-1-((R)-2-(3-(2-(2-(4-(8-(3-amino-6-(2-hydroxyphenyl)pyridazin-4-yl)-2,8-diazaspiro[4.5]decan-2-yl)butoxy)ethoxy)ethoxy)isoxazol-5-yl)-3-methylbutanoyl)-4-hydroxy-N-((S)-1-(4-(4-methylthiazol-5-yl)phenyl)ethyl)pyrrolidine-2-carboxamide] | 10 to 30 nM | > 75% |
